Test systems include SF-295 CNS; HL-60(TB) leukemia; RXF 393 renal; A549 NSCLC; HCC-2998 colon; SN12C renal; SNB-19 CNS; A498 renal; U251 CNS; M14 melanoma.
Assay in all cases: NCI-60 cell line screen, 48 h

Values joined by “and” are separate entries in the source; they are usually repeats but may differ in a detail not shown here. Equal entries are not always repeated.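 Dose response: 5 concentrations. Exposure: 48 h. Format: 96-well plates. Endpoint: linear interpolation; highest concentration if not reached. GI50 marks 50% less growth. TGI: concentration producing complete growth inhibition.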

As to `CN(CO)c1nc(N(C)CO)nc(N(C)CO)n1`, the TGI with SF-295 CNS was greater than 73.4 µM; in the experiment with HL-60(TB) leukemia, 75.1 µM and 16.5 µM; with RXF 393 renal, 34.1 µM and 22.9 µM; in the experiment with A549 NSCLC it was 64 µM and 26.3 µM; in the experiment with HCC-2998 colon it was 67.8 µM and 52.4 µM; in the experiment with SN12C renal it was 70.5 µM and 57.8 µM. Moreover, the TGI was 45.3 µM and 50.4 µM in the experiment on SNB-19 CNS; 60.7 µM and 54 µM in the experiment with A498 renal; 72.8 µM and 46.2 µM with U251 CNS; 36.4 µM and 42.8 µM with M14 melanoma. Further, the GI50 is 26 µM with HL-60(TB) leukemia; 18 µM with RXF 393 renal; 23.5 µM with A549 NSCLC; 27.9 µM and 25.5 µM with HCC-2998 colon; 27.6 µM and 19.5 µM with SN12C renal; 29.8 µM with SNB-19 CNS. Moreover, the GI50 in the experiment on U251 CNS is 29.6 µM; in the experiment with M14 melanoma it was 19.5 µM.

As for `CN1CCN(C(=O)[C@@]2(C)CC[C@]3(C)CC[C@]4(C)C(=CC[C@@H]5[C@@]6(C)CC[C@H](OC(=O)c7cccnc7)C(C)(C)[C@@H]6CC[C@]54C)[C@@H]3C2)CC1`, the GI50 in the experiment with SF-295 CNS is 1.62 µM; in the experiment with HL-60(TB) leukemia, 1.44 µM; with RXF 393 renal it was 1.66 µM; in the experiment with A549 NSCLC, 1.71 µM; with HCC-2998 colon, 1.81 µM; with SN12C renal it was 1.56 µM. Moreover, the GI50 with SNB-19 CNS is 1.74 µM; in the experiment with A498 renal, 4.38 µM; in the experiment with U251 CNS, 1.57 µM; in the experiment on M14 melanoma, 1.62 µM. The TGI in the experiment with SF-295 CNS was determined as 3.05 µM; in the experiment on HL-60(TB) leukemia, 3.36 µM; with RXF 393 renal, 3.33 µM; in the experiment on A549 NSCLC it was 3.28 µM; with HCC-2998 colon, 3.33 µM; in the experiment with SN12C renal, 3.15 µM. The TGI with SNB-19 CNS is 3.53 µM; in the experiment on A498 renal it was 18.4 µM; with U251 CNS it was 2.95 µM; with M14 melanoma, 3.1 µM.

Take `O=C1CS(=O)c2ccccc2N1` (stereo not drawn): the TGI with SF-295 CNS, in the experiment on HL-60(TB) leukemia, with RXF 393 renal, in the experiment with A549 NSCLC, with HCC-2998 colon and in the experiment with SN12C renal was greater than 100 µM throughout. Moreover, the TGI with SNB-19 CNS, with A498 renal, in the experiment on U251 CNS and with M14 melanoma was greater than 100 µM throughout.

Turning to `CCN(CC)CCOc1ccc(NC(=O)C(C(C)C)N2C(=O)/C(=C/c3ccc(Br)cc3)SC2=S)cc1` (stereo not drawn), the GI50 with SF-295 CNS is 3.41 µM; in the experiment on HL-60(TB) leukemia, 4.96 µM; in the experiment with RXF 393 renal, 5.6 µM; in the experiment with A549 NSCLC it was 3.37 µM; with HCC-2998 colon, 2.21 µM; in the experiment with SN12C renal, 1.71 µM. The GI50 in the experiment on SNB-19 CNS is 2.3 µM; with A498 renal, 1.52 µM; in the experiment with U251 CNS, 1.94 µM; in the experiment with M14 melanoma, 2.07 µM. The TGI in the experiment with SF-295 CNS is 11.7 µM; in the experiment on HL-60(TB) leukemia, 20.8 µM; in the experiment with RXF 393 renal, 19.1 µM; in the experiment on A549 NSCLC, 12.5 µM; in the experiment with HCC-2998 colon, 5.13 µM; in the experiment with SN12C renal, 3.29 µM. Besides, the TGI with SNB-19 CNS turned out to be 6.09 µM; with A498 renal, 14.6 µM; with U251 CNS it was 4.08 µM; in the experiment on M14 melanoma, 4.27 µM.

As for `CCCn1cc(/C=N\N=C2\C(=O)Nc3ccc(C)cc32)c2ccccc21`, the GI50 with SF-295 CNS was 8.41 µM; in the experiment with HL-60(TB) leukemia, 1.31 µM; in the experiment with RXF 393 renal, 2.17 µM; with A549 NSCLC, 7.18 µM; in the experiment on HCC-2998 colon, 2.09 µM; in the experiment on SN12C renal, 3.2 µM. In addition, the GI50 in the experiment with SNB-19 CNS was 4.24 µM; with A498 renal it was 1.37 µM; in the experiment with U251 CNS, 3.51 µM; in the experiment on M14 melanoma, 1.92 µM. Also, the TGI with SF-295 CNS came out at 96.6 µM; in the experiment on HL-60(TB) leukemia, 4.8 µM; in the experiment with RXF 393 renal, 7.94 µM; with A549 NSCLC, 39.6 µM; with HCC-2998 colon it was 5.14 µM; with SN12C renal, 75.9 µM. Moreover, the TGI is greater than 100 µM with SNB-19 CNS, 7.5 µM in the experiment with A498 renal, 17.3 µM with U251 CNS and 4.7 µM in the experiment with M14 melanoma.

In the case of `COc1ccc(C2CC(c3ccc4ccccc4c3)=NN2c2nc(O)c(C3=c4cc(Cl)ccc4=NC3=O)s2)cc1` (stereo not drawn), the GI50 is 0.0197 µM and < 0.005 µM in the experiment with SF-295 CNS; 0.171 µM in the experiment with HL-60(TB) leukemia; 0.0186 µM and < 0.005 µM with RXF 393 renal; 0.0251 µM and < 0.005 µM with A549 NSCLC; 0.0216 µM and < 0.005 µM in the experiment with HCC-2998 colon; 0.0264 µM and < 0.005 µM with SN12C renal. Also, the GI50 in the experiment with SNB-19 CNS is 0.034 µM and < 0.005 µM; with A498 renal, 0.0166 µM and < 0.005 µM; in the experiment on U251 CNS, 0.0199 µM and < 0.005 µM; in the experiment with M14 melanoma, 0.0354 µM and < 0.005 µM. The TGI with SF-295 CNS was 0.0491 µM and < 0.005 µM; in the experiment with RXF 393 renal it was 0.0389 µM and < 0.005 µM; with SNB-19 CNS it was 1.18 µM; in the experiment on A498 renal, 0.0419 µM and < 0.005 µM; in the experiment with U251 CNS it was 0.0414 µM and < 0.005 µM.

For the compound `CCN(CC)CCCNc1nccc2c(C)c3[nH]c4ccncc4c(=O)c3cc12`, the TGI is 28.4 µM in the experiment with SF-295 CNS; 8.58 µM in the experiment on HL-60(TB) leukemia; 3.18 µM in the experiment on RXF 393 renal; 14.2 µM with A549 NSCLC; 13.4 µM with HCC-2998 colon; 8.9 µM with SN12C renal. The TGI was 28.4 µM with SNB-19 CNS, 24 µM in the experiment on A498 renal, 11.8 µM with U251 CNS and 9.64 µM with M14 melanoma.

Values taken from PubChem BioAssay (NCI).
